Assay results from PubChem BioAssay (NCI).
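Here, GI50 denotes the concentration required for 50% inhibition of growth. TGI: concentration producing complete growth inhibition.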

Legend:
Experiment in all cases: NCI anticancer screen, dose series, 384-well format
CAKI-1 renal = test system: CAKI-1 renal
COLO 205 colon = test system: COLO 205 colon
HCC-2998 colon = test system: HCC-2998 colon
HCT-15 colon = test system: HCT-15 colon
IGROV1 ovarian = test system: IGROV1 ovarian
MDA-MB-231 breast = test system: MDA-MB-231 breast
MDA-MB-468 breast = test system: MDA-MB-468 breast
MOLT-4 leukemia = test system: MOLT-4 leukemia
NCI-H460 NSCLC = test system: NCI-H460 NSCLC
RXF 393 renal = test system: RXF 393 renal
SK-MEL-28 melanoma = test system: SK-MEL-28 melanoma
SR leukemia = test system: SR leukemia
TK-10 renal = test system: TK-10 renal

## COc1ccc([C@@H](O)c2cc(-c3ncnc4cc(N5CCOCC5)ccc34)c(F)cc2Cl)nn1
CAKI-1 renal
  GI50: 1.19 µM
  TGI: 16 µM
COLO 205 colon
  GI50: 3.52 µM
  TGI: 11.1 µM
HCC-2998 colon
  GI50: 3.21 µM
  TGI: 11.4 µM
HCT-15 colon
  GI50: 3.49 µM
  TGI: 15 µM
IGROV1 ovarian
  GI50: 0.682 µM
  TGI: 2.45 µM
MDA-MB-231 breast
  GI50: 3.52 µM
  TGI: 37.4 µM
MDA-MB-468 breast
  GI50: 1.03 µM
  TGI: 4.31 µM
MOLT-4 leukemia
  GI50: 0.892 µM
  TGI: 2.31 µM
NCI-H460 NSCLC
  GI50: 2.19 µM
  TGI: 13.1 µM
RXF 393 renal
  GI50: 0.553 µM
  TGI: 3.3 µM
SK-MEL-28 melanoma
  GI50: 2.39 µM
  TGI: 27.8 µM
SR leukemia
  GI50: 6.08 µM
  TGI: 19.5 µM
TK-10 renal
  GI50: 2.79 µM
  TGI: 14.6 µM
